Results: US11814652B2, “Pluripotent stem cell differentiation-promoting agent” (Oriental Yeast Co., Ltd., priority 2018, dated 2023)

How the values were obtained:
iPS cells 201B7 strain [1] = assay: Cell number during mesodermal differentiation-induction in medium with β-NMN (Example 3); assay type: cell-based, human; conditions: mesodermal differentiation-inducing medium containing β-NMN 0.1, 0.25 or 1 mM; 7th day after seeding; versus medium not containing β-NMN
Description: The effects of β-NMN on the mesodermal differentiation-induction of iPS cells were examined. The 201B7 strain was used as the iPS cells. The iPS cells were seeded in a 24-well plate coated with Matrigel (manufactured by Corning Incorporated) according to the manufacturer's protocol at 1×10^5 cells/well. The cells in the 24-well plate were cultured in a culture medium for iPS cells adjusted to have a final concentration of Rock inhibitor of 10 μM for 1 day. From the 1st day after seeding, the culture medium was replaced with a culture medium prepared by adjusting a mesoderm differentiation-inducing culture medium of “STEMdiff Trilineage Differentiation kit” (manufactured by STEMCELL Technologies) to have a final concentration of β-NMN of 0, 0.1, 0.25, or 1 mM for 1 day. The culture medium was replaced with a culture medium prepared by adjusting a mesodermal differentiation-inducing culture medium to have final concentrations of both β-NMN and Rock inhibitor of 10 μM only on the 1st day after seeding. Cells of the 7th day after seeding were sampled and the cell numbers were counted. As a result, the number of the cells cultured in the mesodermal differentiation-inducing culture medium containing β-NMN was larger than the number of the cells cultured in the medium not containing β-NMN.

iPS cells 253G1 strain [2] = assay: Cell number during endodermal differentiation-induction in medium with β-NMN (Example 4); assay type: cell-based; conditions: endodermal differentiation-inducing medium containing β-NMN 0.1, 0.25 or 1 mM; 7th day after seeding; versus medium not containing β-NMN
Description: The effects of β-NMN on the induction of endodermal differentiation of iPS cells were examined. As the iPS cells, the 253G1 strain was used. The iPS cells were seeded in a 24-well plate coated with Matrigel (manufactured by Corning Incorporated) according to the manufacturer's protocol at 3×10^5 cells/well. The cells in the 24-well plate were cultured in a culture medium for iPS cells adjusted to have a final concentration of Rock inhibitor of 10 μM for 1 day. From the 1st day after seeding, the culture medium was replaced with a culture medium prepared by adjusting an endoderm differentiation-inducing culture medium of “STEMdiff Trilineage Differentiation kit” (manufactured by STEMCELL Technologies) to have a final concentration of β-NMN of 0, 0.1, 0.25, or 1 mM for 1 day. The culture medium was replaced with a culture medium prepared by adjusting an endodermal differentiation-inducing culture medium to have final concentrations of both β-NMN and Rock inhibitor of 10 μM only on the 1st day after seeding. Cells of the 7th day after seeding were sampled and the cell numbers were counted. As a result, the number of the cells cultured in the endodermal differentiation-inducing culture medium containing β-NMN was larger than the number of the cells cultured in the medium not containing β-NMN.

iPS cells 201B7 strain [3] = assay: Cell number in mesodermal differentiation-induction after undifferentiated culture with β-NMN (Example 6); assay type: cell-based, human; conditions: β-NMN 0.25 or 1 mM in culture medium for iPS cells before mesodermal differentiation-induction; 7th day after seeding; versus no β-NMN
Description: The effects of culturing in the presence of β-NMN before induction of differentiation on the mesodermal differentiation-induction of iPS cells was examined. As the iPS cells, the 201B7 strain was used. The iPS cells were cultured in a culture dish in the same manner as in Example 5, and when the confluent reached 70 to 80%, the iPS cells were detached from the culture dish and collected. The collected iPS cells were seeded at 1×10^5 cells/well in a 24-well plate coated with Matrigel (manufactured by Corning Incorporated) according to the manufacturer's protocol. The cells in the 24-well plate were cultured for 1 day in a culture medium prepared by removing β-NMN from the culture medium when culturing in the culture dish and adjusting to have a final concentration of Rock inhibitor of 10 μM. From the 1st day after seeding, the medium was replaced every day with a culture medium for mesodermal differentiation-induction of “STEMdiff Trilineage Differentiation kit” (manufactured by STEMCELL Technologies). The cells of the 7th day after seeding were sampled and the cell numbers were counted. […]

iPS cells 253G1 strain [4] = assay: Flow cytometry of Sox17/CXCR4 endodermal markers, differentiation-induction in medium with β-NMN (Example 4); assay type: cell-based; conditions: endodermal differentiation-inducing medium with β-NMN 0.1, 0.25 or 1 mM; 5th or 7th day; versus absence of β-NMN
Description: The effects of β-NMN on the induction of endodermal differentiation of iPS cells were examined. As the iPS cells, the 253G1 strain was used. The iPS cells were seeded in a 24-well plate coated with Matrigel (manufactured by Corning Incorporated) according to the manufacturer's protocol at 3×10^5 cells/well. The cells in the 24-well plate were cultured in a culture medium for iPS cells adjusted to have a final concentration of Rock inhibitor of 10 μM for 1 day. From the 1st day after seeding, the culture medium was replaced with a culture medium prepared by adjusting an endoderm differentiation-inducing culture medium of “STEMdiff Trilineage Differentiation kit” (manufactured by STEMCELL Technologies) to have a final concentration of β-NMN of 0, 0.1, 0.25, or 1 mM for 1 day. […] Then, the cells were stained with a fluorescence-labeled anti-Sox17 antibody (manufactured by Becton, Dickinson and Company, clone P7-969) and a fluorescence-labeled anti-CXCR4 antibody (manufactured by Biolegend, clone 12G5). After washing the stained cells, a flow cytometer “FACS caliber” (manufactured by Becton, Dickinson and Company) was used to analyze the fluorescence intensity of the anti-Sox17 antibody and the fluorescence intensity of the anti-CXCR4 antibody in each sample. […]

SMILES: NC(=O)c1ccc[n+]([C@@H]2O[C@H](COP(=O)([O-])O)[C@@H](O)[C@H]2O)c1 [β-NMN, β-nicotinamide mononucleotide]
- number of the cells (iPS cells 201B7 strain [1]): larger
- number of the cells (iPS cells 253G1 strain [2]): larger
- number of the cells (iPS cells 201B7 strain [3]): larger
- ratio of Sox17-positive CXCR4-positive cells (iPS cells 253G1 strain [4]): no clear difference
